pIC50: −log10 of the molar value.
What was measured:
hERG potassium channel = hERG potassium channel (Homo sapiens, UniProt Q12809); assay: Whole-cell patch-clamp (QPatch) of hERG current in HEK293 cells stably expressing hERG; type: cell-based
Procedure: In this study, a whole-cell patch-clamp technique was used to study the inhibitory effect of compounds on hERG potassium channels and to evaluate the risk of ventricular repolarization toxicity.
The HEK293 cell line stably expressing the hERG potassium channel cells was purchased from Creacell, Inc. (Cat. No. A-0320).
The HEK293 cell line that can stably express the hERG potassium channel, was cultured in DMEM medium containing 10% fetal bovine serum and 0.8 mg/mL G418 at 37° C. and 5% carbon dioxide.
Before the test, the cells were separated with TrypLET Express, centrifuged after adding medium to terminate digestion, resuspended the cell count, adjusted the cell density to 2-3×10^6 cells/mL, and then lightly mixed the cells on a room temperature equilibration shaker for 15-20 min.
Electrophysiological assays were performed using a fully automated patch-clamp QPatch 48 X (Sophion) device. The prepared cells were placed on a centrifuge on the Qpatch bench, the cells were washed using multiple centrifugation/suspension methods, and the cell culture medium was replaced with extracellular fluid. Remove an MTP-96 plate and place it in the location of the MTP source. Remove the QPlate chip and subsequently place the QPlate at the Qplate source location. The robotic arm scans the MTP-96 board and the QPlate chip barcode and grabs it to the measuring station. Draw the intracellular and external fluid from the liquid pool and add them to the intracellular fluid pool, cell and test cell pool of the QPlate chip, respectively. At the measuring station, all measuring sites on the QPlate undergo initial quality control. The quality control process includes aspirating the cell suspension from the cell vessel of the centrifuge and positioning the cells to the chip wells via a pressure controller to establish a high-resistance seal and create a whole-cell recording pattern.
The voltage stimulation protocol for whole-cell patch-clamp recording of whole-cell hERG potassium currents is as follows: the cell membrane voltage clamps at −80 mV when a whole-cell closure is formed. The clamping voltage is depolarized from −80 mV to −50 mV for 0.5 s (as a leakage current detection), then steps to 30 mV for 2.5 s, and then quickly recovers to −50 mV for 4 s to excite the tail current of the hERG channel. The data were collected repeatedly every 10 s to observe the effect of the drug on the hERG tail current. −50 mV stimulation at 0.5 s was used as the leakage current detection. The test data is collected by Qpatch and stored in the connected service station.
First, the current after the effect of each drug concentration and the blank control current are normalized 0, and then the inhibition rate corresponding to each drug concentration is calculated.
Calculate the mean and standard error for each concentration and calculate the semi-inhibitory concentration for each compound using the following Formula:
Y=Bottom+(Top−Bottom)/(1+10^((LogIC50−X)*HillSlope)) The above Formula was used to fit the dose-dependent effect nonlinearly, where C represents the test substance concentration, IC50 is the semi-inhibitory concentration, and h represents the Hill coefficient. Curve fitting and IC50 calculations were performed using Graphpad software.

NLRP3 = target: T1, NLRP3 (Homo sapiens, UniProt Q96P20); assay: IL-1β (interleukin-1β) secretion in IFN-γ-differentiated, LPS/ATP-stimulated THP-1 cells (half inhibition rate of NLRP3); type: cell-based; details: IFN-γ 25 ng/mL, LPS 50 ng/mL, ATP 5 mM
T1 construct: endogenous in cells; host or cells: THP-1 cells (IFN-γ differentiated, LPS primed, ATP stimulated)
T1 sequence (Q96P20 whole entry): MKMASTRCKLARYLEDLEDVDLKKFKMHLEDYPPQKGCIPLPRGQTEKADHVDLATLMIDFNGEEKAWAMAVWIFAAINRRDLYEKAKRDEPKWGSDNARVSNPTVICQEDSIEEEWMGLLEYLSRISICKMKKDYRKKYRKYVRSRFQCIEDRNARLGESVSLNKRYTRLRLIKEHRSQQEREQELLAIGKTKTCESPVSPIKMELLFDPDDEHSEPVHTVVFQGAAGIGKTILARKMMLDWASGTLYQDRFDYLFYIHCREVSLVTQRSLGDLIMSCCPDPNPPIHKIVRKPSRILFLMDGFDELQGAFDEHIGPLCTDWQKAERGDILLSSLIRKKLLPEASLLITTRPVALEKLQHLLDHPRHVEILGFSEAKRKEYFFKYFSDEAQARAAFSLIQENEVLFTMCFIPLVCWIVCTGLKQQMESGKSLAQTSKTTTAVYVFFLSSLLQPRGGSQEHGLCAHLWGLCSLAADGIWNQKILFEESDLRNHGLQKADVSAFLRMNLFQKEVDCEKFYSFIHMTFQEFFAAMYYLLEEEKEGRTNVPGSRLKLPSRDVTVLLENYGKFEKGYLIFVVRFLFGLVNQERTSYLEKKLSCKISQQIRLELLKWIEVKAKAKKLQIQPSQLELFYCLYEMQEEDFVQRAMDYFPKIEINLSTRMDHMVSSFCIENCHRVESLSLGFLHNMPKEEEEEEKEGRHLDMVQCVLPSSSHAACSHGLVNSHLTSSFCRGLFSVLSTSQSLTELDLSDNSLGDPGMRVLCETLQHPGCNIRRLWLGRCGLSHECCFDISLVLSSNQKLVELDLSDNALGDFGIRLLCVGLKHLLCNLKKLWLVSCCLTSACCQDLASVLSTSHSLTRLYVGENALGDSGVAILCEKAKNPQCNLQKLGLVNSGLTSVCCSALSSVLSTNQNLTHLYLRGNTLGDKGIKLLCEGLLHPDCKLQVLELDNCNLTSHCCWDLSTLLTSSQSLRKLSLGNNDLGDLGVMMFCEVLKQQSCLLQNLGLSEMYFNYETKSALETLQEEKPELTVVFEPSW
Procedure: Remove THP-1 cells from liquid nitrogen and place in a 37° C. water bath until ice melt. Add the cells to 5 mL of warm cell culture medium and centrifuge at 1,000 rpm for 5 min. Discard the supernatant and resuspend and culture in a new cell culture medium.
THP-1 cells are cultured in the culture medium and passaged every 2-3 days.
2.1.1 Add 100 μL of cell suspension per well to the cell plate and incubate the cell plate in a 37° C., 5% CO2 incubator for 24 hours.
2.2.1 Discard the supernatant of IFN-γ differentiation after differentiation treatment. Add 100 μL of serum-free medium containing LPS (final concentration of 50 ng/mL) to the cell plate. The cell plates were incubated in a 37° C., 5% CO2 incubator for 4 h.
Place the cell plate in an incubator at 37° C. and 5% CO2 for 1 hour.
2.2.3 Add 20 μL of 6×ATP per well according to the plate map (final concentration 5 mM) and incubate the cell plate in a 37° C., 5% CO2 incubator for 1 h. Collect the supernatant (60 μL) and store at −20° C.
The capture antibody mAb Mt175 is diluted to 2 μg/mL with PBS (1:250) and added to the cell plate at 15 μL per well. Keep the plate overnight at 4° C.
2.4.1 Discard the coated antibody and wash 4 times with PBST.
2.4.3 Discard the blocking buffer and wash 4 times with PBST.
2.4.4 Add 25 μL of 2.2.3 collected supernatant sample per well and incubate for 2 h at room temperature.
2.4.5 Discard the samples and wash 4 times with PBST.
2.4.6 Add mAb7P10-biotin (concentration 0.5 ug/mL) to blocking buffer, add 15 μL per well to the cell plate, and incubate for 1 hour at room temperature.
2.4.7 Discard the antibody and wash 4 times with PBST.
2.4.8 Streptavidin-HRP was diluted 1:1000 in blocking buffer, 15 μL per well was added to the cell plate, and incubated for 1 hour at room temperature.
2.4.9 Discard streptavidin-HRP and wash 4 times with PBST.
2.4.10 Add 25 μL of HRP substrate (Surmodics-TMBW-0100-01) per well and incubate the cell plate until a blue product appears.
2.4.11 Add 25 μL of stop solution (Surmodics-LSTP-0100-01) per well, and the blue product turns yellow.
2.4.12 Read the cell plate at 450 nm with a microplate reader.

Chain of hERG potassium channel (Q12809 whole entry): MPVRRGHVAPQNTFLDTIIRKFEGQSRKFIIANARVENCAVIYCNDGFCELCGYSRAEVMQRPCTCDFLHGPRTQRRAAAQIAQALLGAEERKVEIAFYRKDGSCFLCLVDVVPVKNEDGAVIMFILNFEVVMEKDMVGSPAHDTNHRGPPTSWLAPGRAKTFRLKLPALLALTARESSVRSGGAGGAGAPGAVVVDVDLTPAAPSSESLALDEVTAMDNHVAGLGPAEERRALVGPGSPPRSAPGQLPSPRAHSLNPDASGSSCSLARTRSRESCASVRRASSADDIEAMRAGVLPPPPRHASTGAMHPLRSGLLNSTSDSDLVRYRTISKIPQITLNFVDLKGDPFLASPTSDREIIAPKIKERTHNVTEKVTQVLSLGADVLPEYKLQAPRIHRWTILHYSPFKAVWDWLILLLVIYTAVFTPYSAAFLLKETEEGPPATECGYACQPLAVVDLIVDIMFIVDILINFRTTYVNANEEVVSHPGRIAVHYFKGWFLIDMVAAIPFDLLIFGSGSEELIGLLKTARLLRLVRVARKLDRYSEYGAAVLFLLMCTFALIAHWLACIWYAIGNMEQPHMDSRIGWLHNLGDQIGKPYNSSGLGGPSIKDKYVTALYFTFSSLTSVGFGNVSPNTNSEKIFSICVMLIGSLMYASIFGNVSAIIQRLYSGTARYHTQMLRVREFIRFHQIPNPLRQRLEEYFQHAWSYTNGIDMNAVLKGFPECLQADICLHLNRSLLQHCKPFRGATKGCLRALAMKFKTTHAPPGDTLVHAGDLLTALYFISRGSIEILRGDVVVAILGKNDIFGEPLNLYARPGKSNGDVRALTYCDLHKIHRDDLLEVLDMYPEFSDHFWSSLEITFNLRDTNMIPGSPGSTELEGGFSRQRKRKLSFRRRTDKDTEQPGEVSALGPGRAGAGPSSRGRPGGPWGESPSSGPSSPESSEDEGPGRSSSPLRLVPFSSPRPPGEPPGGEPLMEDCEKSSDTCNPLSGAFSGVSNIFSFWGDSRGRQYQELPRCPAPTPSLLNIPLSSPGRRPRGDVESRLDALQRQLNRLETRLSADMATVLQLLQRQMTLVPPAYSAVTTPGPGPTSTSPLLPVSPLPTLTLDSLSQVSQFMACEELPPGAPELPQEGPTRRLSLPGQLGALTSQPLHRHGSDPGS

Row | Structure (SMILES) | pIC50 (hERG potassium channel) | pIC50 (NLRP3)
1 | Cc1cc(N[C@@H]2CCCN(C)C2)nnc1-c1ccc(C(F)(F)F)cc1O [Comparison 3] | > 5.00 | –
2 | Cc1cc(C)c(-c2cnc(N[C@@H]3CCCN(CCO)C3)nn2)c(O)c1 [Embodiment 2, (R)-2-(3-((1-(2-hydroxyethyl)piperidin-3-yl)amino)-1,2,4-triazin-6-yl)-3,5-dimethylphenol] | < 4.52 | 7.40
3 | Cc1cc(C)c(-c2cnc(N[C@@H]3CCCN(C4CC4)C3)nn2)c(O)c1 [Embodiment 6, (R)-2-(3-((1-cyclopropylpiperidin-3-yl)amino)-1,2,4-triazin-6-yl)-3,5-dimethylphenol] | < 4.52 | 8.13
4 | Cc1cc(Cl)cc(O)c1-c1cnc(N[C@@H]2CCCC[C@H]2O)nn1 [Embodiment 35, 5-Chloro-2-(3-(((1R,2R)-2-hydroxycyclohexyl)amino)-1,2,4-triazin-6-yl)-3-methylphenol] | < 4.52 | 7.91
5 | Cc1nc(N[C@H]2C[C@@](C)(O)C2)nnc1-c1ccc(C(F)(F)F)cc1O [Embodiment 37, 2-(3-(((cis)-3-hydroxy-3-methylcyclobutyl)amino)-5-methyl-1,2,4-triazin-6-yl)-5-(trifluoromethyl)phenol] | < 4.52 | 7.56
6 | Cc1cc(C(F)(F)F)cc(O)c1-c1cnc(N[C@@H]2CCC[C@@H](O)C2)nn1 [Embodiment 39] | < 4.52 | –
7 | Cc1cc(C(F)(F)F)cc(O)c1-c1cnc(N[C@H]2C[C@@](C)(O)C2)nn1 [Embodiment 40, 2-(3-(((cis)-3-hydroxy-3-methylcyclobutyl)amino)-1,2,4-triazin-6-yl)-3-methyl-5-(trifluoromethyl)phenol] | < 4.52 | 7.91
8 | Cc1nc(N[C@@H]2CCCN(C(C)CO)C2)nnc1-c1ccc(C(F)(F)F)cc1O (stereo partly drawn) [Embodiment 43, 2-(3-(((3R)-1-(1-hydroxypropyl-2-yl)piperidin-3-yl)amino)-5-methyl-1,2,4-triazin-6-yl)-5-(trifluoromethyl)phenol] | < 4.52 | 8.19
9 | Cc1cc(C(F)(F)F)cc(O)c1-c1cnc(N[C@@H]2CCCN(C(C)CO)C2)nn1 (stereo partly drawn) [Embodiment 47, 2-(3-(((3R)-1-(1-hydroxypropyl-2-yl)piperidin-3-yl)amino)-1,2,4-triazin-6-yl)-3-methyl-5-(trifluoromethyl)phenol] | < 4.52 | 8.34
10 | Cc1cc(C(F)(F)F)cc(O)c1-c1cnc(N[C@@H]2CCCN(CCO)C2)nn1 [Embodiment 48, (R)-2-(3-((1-(2-hydroxyethyl)piperidin-3-yl)amino)-1,2,4-triazin-6-yl)-3-methyl-5-(trifluoromethyl)phenol] | < 4.52 | 8.04
11 | Oc1cc(C(F)(F)F)ccc1-c1nnc(N[C@@H]2CCCC[C@H]2O)c2ccccc12 [Embodiment 64] | < 4.52 | 8.33
12 | Oc1cc(C(F)(F)F)ccc1-c1nnc(N[C@@H]2CCCC[C@H]2O)c2ncccc12 [Embodiment 70, 2-(8-(((1R,2R)-2-hydroxycyclohexyl)amino)pyrido[2,3-d]pyridazin-5-yl)-5-(trifluoromethyl)phenol] | < 4.52 | 8.28
13 | C[C@]1(O)C[C@@H](Nc2nnc(-c3ccc(C(F)(F)F)cc3O)c3cnccc23)C1 [Embodiment 78] | < 4.52 | 8.55
14 | CN1CCC[C@@H](Nc2nnc(-c3ccc(C(F)(F)F)cc3O)c3c2ccn3C)C1 [Embodiment 114] | – | 7.51
15 | Cc1cc(Cl)cc(O)c1-c1nnc(N[C@@H]2CCCN(C)C2)c2ccccc12 [Embodiment 116] | – | 7.97
16 | COc1ccc2c(-c3ccc(C(F)(F)F)cc3O)nnc(N[C@@H]3CCCN(C)C3)c2c1 [Embodiment 118] | – | 8.54
17 | CN1CCC[C@@H](Nc2nnc(-c3ccc(C(F)(F)F)cc3O)c3cccc(F)c23)C1 [Embodiment 119] | – | 8.30
18 | CN1CCC[C@@H](Nc2nnc(-c3ccc(C(F)(F)F)cc3O)c3ccc(F)cc23)C1 [Embodiment 120] | – | 8.39
19 | CN1CCC[C@@H](Nc2nnc(-c3ccc(C(F)(F)F)cc3O)c3cc(F)ccc23)C1 [Embodiment 121] | – | 8.92

Row | Structure (SMILES) | pIC50 (hERG potassium channel) | pIC50 (NLRP3)
20 | CN1CCC[C@@H](Nc2nnc(-c3ccc(C(F)(F)F)cc3O)c3c(F)cccc23)C1 [Embodiment 122] | – | 8.54
21 | CN1CCC[C@@H](Nc2nnc(-c3ccc(Cl)cc3O)c3cccnc23)C1 [Embodiment 123] | – | 8.26
22 | CN1CCC[C@@H](Nc2nnc(-c3ccc(Cl)cc3O)c3ncccc23)C1 [Embodiment 124] | – | 7.69
23 | Cc1cc(Cl)cc(O)c1-c1nnc(N[C@@H]2CCCN(C)C2)c2ncccc12 [Embodiment 125] | – | 8.00
24 | CC(CO)N1CCC[C@@H](Nc2nnc(-c3ccc(C(F)(F)F)cc3O)c3ccncc23)C1 (some centres unmarked) [Embodiment 126] | < 4.52 | 8.41
25 | CC(CO)N1CCC[C@@H](Nc2nnc(-c3ccc(C(F)(F)F)cc3O)c3cnccc23)C1 (some centres unmarked) [Embodiment 127] | < 4.52 | 8.46
26 | CN1CCC[C@@H](Nc2nnc(-c3ccc(Cl)cc3O)c3ccncc23)C1 [Embodiment 128] | – | 8.52
27 | CN1CCC[C@@H](Nc2nnc(-c3ccc(Cl)cc3O)c3cnccc23)C1 [Embodiment 129] | – | 8.42
28 | CC(CO)N1CCC[C@@H](Nc2nnc(-c3ccc(C(F)(F)F)cc3O)c3ccoc23)C1 (some centres unmarked) [Embodiment 130] | < 4.52 | 8.72
29 | CC(CO)N1CCC[C@@H](Nc2nnc(-c3ccc(C(F)(F)F)cc3O)c3occc23)C1 (some centres unmarked) [Embodiment 131] | < 4.52 | 8.14
30 | Cc1nc(N[C@@H]2CCCN(CC3(O)CC3)C2)nnc1-c1ccc(C(F)(F)F)cc1O [Embodiment 134] | – | 7.85
31 | C[C@]1(O)C[C@@H](Nc2nnc(-c3ccc(C(F)(F)F)cc3O)c3cc(F)ccc23)C1 [Embodiment 138] | – | 8.33
32 | Oc1cc(C(F)(F)F)cc(F)c1-c1nnc(N[C@@H]2CCCC[C@H]2O)c2ncccc12 [Embodiment 140] | – | 8.02
33 | Cc1nc(N[C@@H]2CCCN(C3CC3)C2)nnc1-c1ccc(C(F)(F)F)cc1O [Embodiment 141] | – | 8.82
34 | Cc1nc(N[C@@H]2CCCN(C3CCC3)C2)nnc1-c1ccc(C(F)(F)F)cc1O [Embodiment 142] | – | 7.95
35 | CCN1CCC[C@@H](Nc2nnc(-c3ccc(C(F)(F)F)cc3O)c(C)n2)C1 [Embodiment 143] | – | 9.05
36 | Cc1nc(N[C@@H]2CCCN(C(C)C)C2)nnc1-c1ccc(C(F)(F)F)cc1O [Embodiment 144] | – | 8.74
37 | Cc1nc(N[C@@H]2CCCN(CC3CC3)C2)nnc1-c1ccc(C(F)(F)F)cc1O [Embodiment 146] | – | 8.13
38 | OCCN1CCC[C@@H](Nc2nnc(-c3ccc(Cl)cc3O)c3cc(F)ccc23)C1 [Embodiment 154] | – | 8.49
